In brackets after ≈: the same amount, converted by molar mass. Read-outs that look alike come from different tables or passages of the source.
Experiments:
C. auris AR Bank #387 = test: MIC determination by in vitro antifungal assay; assay type: cell-based, Candida auris
Protocol: (§1) The antifungal agent amphotericin B (AmB) was purchased from VWR (Radnor PA, USA). AmB was dissolved in DMSO at a final concentration of 5 mg/mL and was stored at −20° C., protected from light. Candida albicans American Type Culture Collection (ATCC) 10231 (strain A), C. albicans ATCC 64124 (B), and C. albicans ATCC MYA-2876 (C) were obtained from Utah State University. C. albicans ATCC 90819 (D), C. albicans ATCC MYA-2310 (E), C. albicans ATCC MYA-1237 (F), C. albicans ATCC MYA-1003 (G), Candida glabrata ATCC 2001 (H), Candida krusei ATCC 6258 (I), Candida parapsilosis ATCC 22019 (J), Cryptococcus neoformans ATCC MYA-895 (M), Aspergillus terreus ATCC MYA-3633 (N), and Aspergillus flavus ATCC MYA-3631 (0) were obtained from the American Type Culture Collection (ATCC; Manassas, VA, USA). Aspergillus nidulans ATCC 38163 (P) was obtained from University of Kentucky. Clinically derived Aspergillus fumigatus NRRL 163 (Q), A. fumigatus NRRL 5109 (R), and A. fumigatus NRRL 6113 (S) were obtained from Northern Regional Research Laboratory (NRRL). Candida auris 384 (K), C. auris 390 (L), and fungal strains 381-400 (including 10 C. auris (AR Bank #381-390), 3 Candida duobushaemulonii (AR Bank #391, AR Bank #392, and AR Bank #394), 2 Candida haemulonii (AR Bank #393 and AR Bank #395), 1 Kodameae ohmeri (AR Bank #396), 1 C. krusei (AR Bank #397), 1 Candida lusitaniae (AR Bank #398), and 2 Saccharomyces cerevisiae strains (AR Bank #399 and AR Bank #400)) were part of a larger fungal library from the AR Bank maintained by the Centers for Disease Control and Prevention (CDC; Atlanta, GA, USA). Filamentous fungi and yeasts were cultivated at 35° C. in RPMI 1640 medium (with L-glutamine, without sodium bicarbonate, Sigma-Aldrich, St. Louis, MO) buffered to a pH of 7.0 with 0.165 M morpholinepropanesulfonic acid (MOPS) buffer (Sigma-Aldrich). For cytotoxicity assays, HepG2 and the mouse macrophage cell line J774A.1 were obtained from University of Kentucky. The human embryonic kidney cell line, HEK-293, was bought from the ATCC. Mammalian cells were grown in Dulbecco's Modified Eagle's Medium (DMEM) (from VWR) with 10% fetal bovine serum (FBS) (from VWR) and 1% Pen/Strep (from ATCC). Cell lines were cultured at 37° C. with 5% CO2 and passaged by trypsinization with 0.05% trypsin: 0.53 mM EDTA (from Sigma-Aldrich).
(§2) From the actively growing yeast culture, 100 µL were then transferred to 900 μL of RPMI 1640 medium and re-adjusted to achieve OD600 of 0.12 (˜1×10^6 CFU/mL). The cell suspension was further diluted to achieve 1:100 in RPMI 1640 medium.

C. auris AR Bank #381 = test: MIC determination by in vitro antifungal assay; assay type: cell-based, Candida auris
Protocol: as §1, §2

C. auris AR Bank #383 = test: MIC determination by in vitro antifungal assay; assay type: cell-based, Candida auris
Protocol: as §1, §2

C. auris AR Bank #388 = test: MIC determination by in vitro antifungal assay; assay type: cell-based, Candida auris
Protocol: as §1, §2

C. auris AR Bank #386 = test: MIC determination by in vitro antifungal assay; assay type: cell-based, Candida auris
Protocol: as §1, §2

C. auris AR Bank #385 = test: MIC determination by in vitro antifungal assay; assay type: cell-based, Candida auris
Protocol: as §1, §2

C. auris AR Bank #389 = test: MIC determination by in vitro antifungal assay; assay type: cell-based, Candida auris
Protocol: as §1, §2

C. auris AR Bank #382 = test: MIC determination by in vitro antifungal assay; assay type: cell-based, Candida auris
Protocol: as §1, §2

[1] = tested on: Candida duobushaemulonii AR Bank #391; test: MIC determination by in vitro antifungal assay; assay type: cell-based
Protocol: as §1, §2

[2] = tested on: Candida duobushaemulonii AR Bank #394; test: MIC determination by in vitro antifungal assay; assay type: cell-based
Protocol: as §1, §2

[3] = tested on: Saccharomyces cerevisiae AR Bank #399; test: MIC determination by in vitro antifungal assay; assay type: cell-based
Protocol: as §1, §2

[4] = tested on: Candida haemulonii AR Bank #393; test: MIC determination by in vitro antifungal assay; assay type: cell-based
Protocol: as §1, §2

[5] = tested on: Candida duobushaemulonii AR Bank #392; test: MIC determination by in vitro antifungal assay; assay type: cell-based
Protocol: as §1, §2

[6] = tested on: Candida lusitaniae AR Bank #398; test: MIC determination by in vitro antifungal assay; assay type: cell-based; settings: Candida strain AR Bank #398
Protocol: as §1, §2

[7] = tested on: Kodameae ohmeri AR Bank #396; test: MIC determination by in vitro antifungal assay; assay type: cell-based; settings: strain AR Bank #396
Protocol: as §1, §2

[8] = tested on: Candida krusei AR Bank #397; test: MIC determination by in vitro antifungal assay; assay type: cell-based; settings: Candida strain AR Bank #397
Protocol: as §1, §2

[9] = tested on: Candida haemulonii AR Bank #395; test: MIC determination by in vitro antifungal assay; assay type: cell-based
Protocol: as §1, §2

[10] = tested on: panel of ten C. auris strains (AR Bank #381-390); test: MIC determination, summary over the C. auris panel; assay type: cell-based, Candida auris; settings: Candidozyma auris
Protocol: as §1, §2

[11] = Candidozyma auris, C. auris AR Bank # 387 (Table 2B), read-out: MIC
[12] = Candidozyma auris, C. auris AR Bank # 381 (Table 2B), read-out: MIC
[13] = Candidozyma auris, C. auris AR Bank # 383 (Table 2B), read-out: MIC
[14] = Candidozyma auris, C. auris AR Bank # 388 (Table 2B), read-out: MIC
[15] = Candidozyma auris, C. auris AR Bank # 386 (Table 2B), read-out: MIC
[16] = Candidozyma auris, C. auris AR Bank # 385 (Table 2B), read-out: MIC
[17] = Candidozyma auris, C. auris AR Bank # 389 (Table 2B), read-out: MIC
[18] = Candidozyma auris, C. auris AR Bank # 382 (Table 2B), read-out: MIC
[19] = all C. auris strains tested with the exception of AR Bank #390

| Compound | MIC (C. auris AR Bank #387; C. auris AR Bank #387) [μg/mL^−1] | MIC (C. auris AR Bank #381; C. auris AR Bank #381) [μg/mL^−1] | MIC (C. auris AR Bank #383; C. auris AR Bank #383) [μg/mL^−1] | MIC (C. auris AR Bank #388; C. auris AR Bank #388) [μg/mL^−1] | MIC (C. auris AR Bank #386; C. auris AR Bank #386) [μg/mL^−1] | MIC (C. auris AR Bank #385; C. auris AR Bank #385) [μg/mL^−1] | MIC (C. auris AR Bank #389; C. auris AR Bank #389) [μg/mL^−1] | MIC (C. auris AR Bank #382; C. auris AR Bank #382) [μg/mL^−1] | MIC [1] [μg/mL^−1] | MIC [2] [μg/mL^−1] | MIC [3] [μg/mL^−1] | MIC [4] [μg/mL^−1] | MIC [5] [μg/mL^−1] | MIC [6] [μg/mL^−1] | MIC [7] [μg/mL^−1] | MIC [8] [μg/mL^−1] | MIC [9] [μg/mL^−1] | MIC (C. auris AR Bank #387; [11]) [µg/mL] | MIC (C. auris AR Bank #381; [12]) [µg/mL] | MIC (C. auris AR Bank #383; [13]) [µg/mL] | also measured |
| --- | --- | --- | --- | --- | --- | --- | --- | --- | --- | --- | --- | --- | --- | --- | --- | --- | --- | --- | --- | --- | --- |
| C[C@@H]1[C@H](O)[C@@H](C)/C=C/C=C/C=C/C=C/C=C/C=C/C=C/[C@H](O[C@@H]2O[C@H](C)[C@@H](O)[C@H](N)[C@@H]2O)C[C@@H]2O[C@](O)(C[C@@H](O)C[C@@H](O)[C@H](O)CC[C@@H](O)C[C@@H](O)CC(=O)O[C@H]1C)C[C@H](O)[C@H]2C(=O)O [AmB, amphotericin B, reference compound] | 0.98 | 0.98 | 1.95 | 1.95 | 0.98 | 1.95 | 1.95 | 0.98 | 7.8 | 0.98 | 15.6 | 13.6 | 7.8 | 3.9 | 1.95 | 0.49 | 3.9 |  |  |  | MIC (C. auris AR Bank #387; C. auris AR Bank # 387 (Table 2B)): 0.98 μg/mL^−1; MIC (C. auris AR Bank #381; C. auris AR Bank # 381 (Table 2B)): 0.98 μg/mL^−1; MIC (C. auris AR Bank #383; C. auris AR Bank # 383 (Table 2B)): 1.95 μg/mL^−1; MIC (C. auris AR Bank #388; C. auris AR Bank # 388 (Table 2B)): 1.95 μg/mL^−1; MIC (C. auris AR Bank #386; C. auris AR Bank # 386 (Table 2B)): 0.98 μg/mL^−1; MIC (C. auris AR Bank #385; C. auris AR Bank # 385 (Table 2B)): 1.95 μg/mL^−1; MIC (C. auris AR Bank #389; C. auris AR Bank # 389 (Table 2B)): 1.95 μg/mL^−1; MIC (C. auris AR Bank #382; C. auris AR Bank # 382 (Table 2B)): 0.98 μg/mL^−1 |
| O=C(NNc1cccc(F)c1)c1ccccn1 [Compound 2a] | 0.49 | 0.49 | 1.95 | 0.49 | 0.49 | 0.98 | 0.12 | 0.98 | 0.49 | 0.49 | 1.95 | 0.12 | 0.24 | 0.98 | 0.24 | 0.24 | ≤0.06 |  |  |  |  |
| O=C(NNc1cccc(Cl)c1)c1ccccn1 [Compound 2b] | 0.49 | 0.98 | 0.49 | 0.49 | 0.24 | 0.49 | 0.49 | 0.49 | 0.24 | 0.12 | 0.98 | 0.12 | 0.24 | 0.98 | 0.12 | 0.12 | ≤0.06 |  |  |  |  |
| COc1cccc(NNC(=O)c2ccccn2)c1 [Compound 2c] | 0.49 | 3.9 | 0.98 | 3.9 | 0.49 | 3.9 | 0.49 | 0.98 | 1.95 | 0.98 | 7.8 | 0.49 | 1.95 | 1.95 | 0.49 | 0.49 | 0.49 |  |  |  |  |
| O=C(NNc1ccc(F)cc1)c1nc(F)ccc1F [Compound 8d] |  |  |  |  |  |  |  |  |  |  |  |  |  |  |  |  |  | 0.49 (≈ 1.83 µM) | 0.98 (≈ 3.67 µM) | 0.98 (≈ 3.67 µM) | MIC (C. auris AR Bank #388; [14]): 0.49 µg/mL (≈ 1.83 µM); MIC (C. auris AR Bank #386; [15]): 0.98 µg/mL (≈ 3.67 µM); MIC (C. auris AR Bank #385; [16]): 0.24 µg/mL (≈ 0.898 µM); MIC (C. auris AR Bank #389; [17]): 0.98 µg/mL (≈ 3.67 µM); MIC (C. auris AR Bank #382; [18]): 0.98 µg/mL (≈ 3.67 µM); MIC ([10]; against all ten C. auris strains tested (AR Bank #381-390)): 0.06 to 1.95 µg/mL (≈ 0.225 to 7.3 µM) |
| COc1ccc(NNC(=O)c2nc(F)ccc2F)cc1 [Compound 8f] |  |  |  |  |  |  |  |  |  |  |  |  |  |  |  |  |  | 0.98 (≈ 3.51 µM) | 0.98 (≈ 3.51 µM) | 1.95 (≈ 6.98 µM) | MIC (C. auris AR Bank #388; [14]): 0.98 µg/mL (≈ 3.51 µM); MIC (C. auris AR Bank #386; [15]): 0.98 µg/mL (≈ 3.51 µM); MIC (C. auris AR Bank #385; [16]): 0.49 µg/mL (≈ 1.75 µM); MIC (C. auris AR Bank #389; [17]): 0.98 µg/mL (≈ 3.51 µM); MIC (C. auris AR Bank #382; [18]): 0.98 µg/mL (≈ 3.51 µM); MIC [10, 19]: 0.49 to 1.95 µg/mL (≈ 1.75 to 6.98 µM) |
| O=C(NNc1ccc(F)cc1F)c1nc(F)ccc1F [Compound 8g] |  |  |  |  |  |  |  |  |  |  |  |  |  |  |  |  |  | 0.98 (≈ 3.44 µM) | 1.95 (≈ 6.84 µM) | 1.95 (≈ 6.84 µM) | MIC (C. auris AR Bank #388; [14]): 0.98 µg/mL (≈ 3.44 µM); MIC (C. auris AR Bank #386; [15]): 1.95 µg/mL (≈ 6.84 µM); MIC (C. auris AR Bank #385; [16]): 0.49 µg/mL (≈ 1.72 µM); MIC (C. auris AR Bank #389; [17]): 1.95 µg/mL (≈ 6.84 µM); MIC (C. auris AR Bank #382; [18]): 1.95 µg/mL (≈ 6.84 µM); MIC [10, 19]: 0.49 to 1.95 µg/mL (≈ 1.72 to 6.84 µM) |

From patent US20240425464A1, “Substituted Monohydrazides as Potent Antifungal Agents” (University of Kentucky Research Foundation, priority 2023, published 2024)
